A short description of series [1]: HPLC content of Gd-MS-325 in the formulation after heating (100% method, external standard). It is filed as physicochemical. As for the experimental part: The low content and the yellow coloration indicate decomposition.
For comparison: Content after HPLC/95° C. (6 hours): 98.9%.

The conditions of series [2]: blood pool agent; cited from earlier work.
The target of series [3] is human serum albumin (HSA) (Homo sapiens, UniProt P02768). Conditions: cited from earlier work.
Sequence of human serum albumin (HSA) (P02768 25-609): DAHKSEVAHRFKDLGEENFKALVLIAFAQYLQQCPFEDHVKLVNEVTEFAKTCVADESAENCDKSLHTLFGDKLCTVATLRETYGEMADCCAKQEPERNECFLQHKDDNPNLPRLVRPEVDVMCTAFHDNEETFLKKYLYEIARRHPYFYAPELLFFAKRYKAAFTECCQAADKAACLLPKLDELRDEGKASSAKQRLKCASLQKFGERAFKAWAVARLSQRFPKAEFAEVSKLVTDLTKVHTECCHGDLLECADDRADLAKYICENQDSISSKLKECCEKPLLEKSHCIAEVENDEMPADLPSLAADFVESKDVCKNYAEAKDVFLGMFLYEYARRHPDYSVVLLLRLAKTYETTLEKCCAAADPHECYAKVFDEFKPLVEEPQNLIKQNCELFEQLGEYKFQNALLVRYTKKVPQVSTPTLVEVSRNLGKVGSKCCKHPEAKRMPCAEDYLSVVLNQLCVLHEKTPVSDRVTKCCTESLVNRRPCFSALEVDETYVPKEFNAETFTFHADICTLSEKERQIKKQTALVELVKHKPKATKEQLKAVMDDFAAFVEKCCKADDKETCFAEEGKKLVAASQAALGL

On to “gadolinato(3-),[[(4R)-4[bis[(carboxy-.kappa.O)methyl]amino-.kappa.N]-6,9-bis[(carboxy-.kappa.O)methyl]-1-[(4,4-diphenylcyclohexyl)oxy]-1-hydroxy-2-oxa-6,9-diaza-1-phosphaundecan-11-ylic-acid-.kappa.N6,.kappa.N9,kappa.011]1-oxidato(6-)]-trihydrogen [Gd-MS-325]”, for which the “content of Gd-MS-325 (HPLC)” value in series [1] (95° C. (6 hours), for comparison) worked out at 98.9%; in series [1] (in-situ formulation refluxed for 48 hours, low content and yellow coloration indicate decomposition) it was 96.3%. Besides, the “retention in the intravascular space” value in series [2] is on record as “retained in the intravascular space”. Besides, the “binding to human serum albumin (HSA)” value in series [3] is on record as “binds to human serum albumin (HSA)”.

(Values after US6559330B1, “CALCIUM COMPLEX OF [[(4R)-4-[BIS{CARBOXY-.KAPPA.O)METHYL]AMINO-.KAPPA.N]-6,9-BIS[(CARBOXY.KAPPA.O)METHYL]-1-[(4,4-DIPHENYLCYCLOHEXYL)OXY]-1-HYDROXY-2-OXA-6,9-DIAZA-1-PHOSPHAUNDECAN-11-YLIC-ACID-.KAPPA.N6,.KAPPA.N9,.KAPPA.011]1-OXIDATO(6-)]-, HEXAHYDROGEN, ITS SALTS, PHARMACEUTICAL AGENTS THAT …” (Schering Aktiengesellschaft, priority 1999, dated 2003).)
